Values of other authors, collected in patent publication US6066339A (priority 1997, dated 2000).

Tested on: μ-opioid
Conditions: animal experiments

Compound: CN1CC[C@]23c4c5ccc(O)c4O[C@H]2[C@@H](O[C@@H]2O[C@H](C(=O)O)[C@@H](O)[C@H](O)[C@H]2O)C=C[C@H]3[C@H]1C5 [morphine-6-glucuronide]
- μ-opioid agonism: potent μ-opioid agonist
